Measurements from US9476099B2 (TRUSTEES OF DARTMOUTH COLLEGE, priority 2012, dated 2016).
“Also recorded” adds a separate entry of the source.

How the values were obtained:
NT2/D1 cells [1] = test: Gene expression microarray with PAM cluster analysis (Tables 1-5); type: cell-based, human; settings: 1.5-fold or greater
Description: The cisplatin treatment protocol has been previously described (Kerley-Hamilton et al. 2005. Oncogene 24:6090-6100).
The same effect was not observed in cells treated with cisplatin; gene expression levels were not dramatically altered in cisplatin-treated cells. […] The genes clustered into distinct patterns.
Next, partitioning around medoids (PAM) analysis was performed on the 1130 genes whose expression levels changed by 1.5-fold or greater as compared to control treatment. […] Changes in gene expression levels of representative genes for each cluster were confirmed in independent samples by real-time PCR (FIG. 10).
(§1) Expression analysis was performed on the […] HumanHT-12 v3 or […] HumanHT-12 v4 bead chip arrays ([…]) and scanned on the BeadArray Reader ([…]) according to manufacturer's instructions.

[2] = tested on: LINE-1 elements in NT2/D1 cells; test: LINE-1 element bisulfite pyrosequencing (global DNA methylation); type: cell-based; settings: low dose decitabine
Description: (§2) Genomic DNA was isolated with the QIAMP DNA mini kit (Qiagen) and bisulfite converted with the EZ DNA methylation kit (Zymo Research). DNA was amplified with HOTSTARTAQ plus DNA polymerase (Qiagen). The LINE-1 pyrosequencing assay averages across four CpG sites and has been described previously (Kashiwagi et al. 2011. Nucleic Acids Res. 39:874-888). Pyrosequencing assays for RIN1, SOX15, and TLR4 were designed with PyroMark assay design software (Qiagen) to sequence across corresponding probes cg0599842, cg02515422 and cg13098960 on the HumanMethylation27 BeadChip.

[3] = tested on: RIN1, SOX15 and TLR4 promoter in NT2/D1 cells; test: Promoter specific bisulfite pyrosequencing; type: cell-based; settings: 10 nM, 3 days, FIG. 13
Description: The graph depicts an average of triplicate sample determinations. Error bars are standard deviation. **=p<0.005. SOX15 values represent the average methylation value across two CpG sites. RIN1 and TRL4 values represent the average methylation across three CpG sites.
(§3) However, methylation changes were less robust in the experiments in NT2/D1 cells. Only 12 genes were identified as having significant decreases in promoter methylation. […] These six genes included RIN1, SOX15, TLR4, GPER, TRIM54, and CD164L2.
as §2

[4] = tested on: non-seminiferous testicular cancer (germ cell testicular cancer); settings: 75 mg/m^2, 3 infusions in one day, repeated once a week for 5 weeks; Clavel et al. 1992; cited from earlier work
[5] = tested on: phosphorylated H2AX in NT2/D1-R1 cells; test: DNA damage by induction of phosphorylated H2AX (western blot); type: cell-based; settings: three day decitabine treatment
Description: (§4) Importantly, decitabine-mediated H2AX activation also occurs in the presence of the caspase 3 inhibitor (Z-VAD-FMK) at concentrations that inhibit PARP cleavage.
(§5) SYBR green-based real-time PCR (Applied Biosystems) was employed using the ddCT method normalized to GAPDH. For western blot analysis cells were lysed in radioimmune precipitation buffer and separated by SDS-PAGE. Antibodies to actin (sc01615, Santa Cruz), 139-H2AX (Cell Signaling), PARP (c-2-10, Biomol International) and p53 (D0-1, Santa Cruz) were used.

[6] = tested on: RIN1, SOX15 and TLR4 in NT2/D1 cells; test: Real-time PCR of gene expression; type: cell-based; settings: 10 nM, 3 days, FIG. 14
Description: The graph depicts an average of triplicate sample determinations. Error bars are standard deviation. *=p<0.05; **=p<0.005.
as §3, §5

NT2 cells = test: Gene set enrichment analysis (GSEA) of microarray data (Table 6); type: cell-based, human
Description: Gene set enrichment analysis (GSEA) was performed.
as §1

NT2/D1 cells [7] = test: Apoptosis by PARP cleavage and sub G1 DNA content; type: cell-based; settings: decitabine 10 nM, three days; NT2/D1
Description: (§6) Cells were cultured in DMEM media (Gibco) with 10% FBS. Decitabine was added fresh each day. Lentiviral control cells and the stable shRNA DNMT3B knockdown cell line (NT2/D1-R1-sh84) were described previously (Beyrouthy et al. 2009. Cancer Res. 69:9360-9366). DNMT3B knockdown was greater than 90% as confirmed by western blot analysis. Cell proliferation and survival were assessed with the CELL-TITRE GLO assay (Promega). Cell cycle analysis with propidium iodine has been previously described (Kerley-Hamilton et al. 2005. Oncogene 24:6090-6100).
as §5

NT2/D1-R1 cells = test: Apoptosis by PARP cleavage and sub G1 DNA content; type: cell-based; settings: decitabine 10 nM, three days; NT2/D1-R1
Description: as §4, §6, §5

[8] = tested on: colorectal cancer, cancer of the head and neck, renal carcinoma, or malignant melanoma; settings: 75 mg/m^2, 3 treatments in one day, repeated once a week for 5 weeks; Abele et al. 1987; cited from earlier work
[9] = Gene Sets Depleted in NT2 Cells with 3-Day Decitabine Treatment (10 nM)
[10] = Gene Sets Enriched in NT2 Cells with 3-Day Decitabine Treatment (10 nM)

SMILES: Nc1ncn([C@H]2C[C@H](O)[C@@H](CO)O2)c(=O)n1 [decitabine, 5-aza-deoxycytidine]
- Cluster 1: genes primarily up-regulated only with 3 days of decitabine treatment (NT2/D1 cells [1]; 10 nM, 3 days): 704 genes
- Cluster 3: genes upregulated by both decitabine treatment and cisplatin treatment (NT2/D1 cells [1]): 71 genes
- Cluster 4: genes down-regulated by decitabine, enriched in pluripotency genes (NT2/D1 cells [1]): 186 genes
- Cluster 5: genes down-regulated by both decitabine treatment and cisplatin treatment (NT2/D1 cells [1]): 88 genes
- global DNA methylation (LINE-1 bisulfite pyrosequencing) [2]: significant reduction in global DNA methylation
- promoter methylation of RIN1, SOX15 and TLR4 (bisulfite pyrosequencing) [3]: decreased promoter methylation
- activity in Phase II clinical trial patients [4]: no activity
- DNA damage assessed by induction of phosphorylated H2AX [5]: induced DNA damage
- expression of RIN1, SOX15 and TLR4 (real-time PCR) [6]: increased expression
- NES, BENPORATH_ES_1 (NT2 cells; [9]): 2.6981
- NES, BENPORATH_ES_2 (NT2 cells; [9]): 2.3953
- NES, BHATTACHARYA_EMBRYONIC_STEM_CELL (NT2 cells; [9]): 2.2132
- NES, CONRAD_STEM_CELL (NT2 cells; [9]): 2.1627
- NES, MISSIAGLIA_REGULATED_BY_METHYLATION_DN (NT2 cells; [9]): 2.1720
- NES, MUELLER_PLURINET (NT2 cells; [9]): 2.2694
- NES, PAL_PRMT5_TARGETS_UP (NT2 cells; [9]): 2.2049
- NES, SCHLOSSER_MYC_TARGETS_AND_SERUM_RESPONSE_DN (NT2 cells; [9]): 2.2821
- NES, SCHLOSSER_MYC_TARGETS_REPRESSED_BY_SERUM (NT2 cells; [9]): 2.4043
- NES, SCHUHMACHER_MYC_TARGETS_UP (NT2 cells; [9]): 2.5662
- NES, VSE2F_02 (NT2 cells; [9]): 2.2708
- NES, WONG_EMBRYONIC_STEM_CELL_CORE (NT2 cells; [9]): 2.4279
- NES, CONCANNON_APOPTOSIS_BY_EPOXOMICIN_UP (NT2 cells; [10]): −2.2139
- NES, HAMAI_APOPTOSIS_VIA_TRAIL_DN (NT2 cells; [10]): −1.9615
- NES, HELLER_SILENCED_BY_METHYLATION_UP (NT2 cells; [10]): −1.9604
- NES, KERLEY_RESPONSE_TO_CISPLATIN_UP (NT2 cells; [10]): −2.4408
- NES, KIM_RESPONSE_TO_TSA_AND_DECITABINE_UP (NT2 cells; [10]): −1.9665
- NES, KYNG_DNA_DAMAGE_BY_UV (NT2 cells; [10]): −2.0319
- NES, MISSIAGLIA_REGULATED_BY_METHYLATION_UP (NT2 cells; [10]): −2.1687
- NES, MUELLER_METHYLATED_IN_GLIOBLASTOMA (NT2 cells; [10]): −2.0961
- NES, RUGO_UV_RESPONSE (NT2 cells; [10]): −1.9676
- apoptotic responses (PARP cleavage, sub G1 DNA content with G2 arrest) (NT2/D1 cells [7]): apoptotic responses
- apoptotic responses (PARP cleavage, sub G1 DNA content with G2 arrest) (NT2/D1-R1 cells): apoptotic responses; also recorded: induced apoptosis
- efficacy against cancer in patients [8]: no efficacy
